Reference: ChEMBL document CHEMBL1152405, “Bis-anthracenyl isoxazolyl amides have enhanced anticancer activity” (Bioorg Med Chem Lett, 2009)

Assays:
Type in all cases: functional
UACC-62 = assay: Growth inhibition of human UACC62 cells at 10 uM after 24 hrs by MTT assay relative to control; design: scale not given: the % may be the effect or the level left
OVCAR-8 = assay: Growth inhibition of human OVCAR8 cells at 10 uM after 24 hrs by MTT assay relative to control; design: scale not given: the % may be the effect or the level left
HT-29 = assay: Growth inhibition of human HT-29 cells at 10 uM after 24 hrs by MTT assay relative to control; design: scale not given: the % may be the effect or the level left
NCI-H23 = assay: Growth inhibition of human NCI-H23 cells after 24 hrs by MTT assay; settings: NCI-H23, 24 h
[1] = Growth inhibition of human […] cells at 10 uM after 24 hrs by MTT assay relative to control; design: scale not given: the % may be the effect or the level left
UACC-257 = assay: Growth inhibition of human UACC257 cells after 24 hrs by MTT assay; settings: UACC-257, 24 h
MCF7 = assay: Growth inhibition of human MCF7 cells at 10 uM after 24 hrs by MTT assay relative to control; design: scale not given: the % may be the effect or the level left
[2] = Growth inhibition of human Hs 578T cells at 10 uM after 24 hrs by MTT assay relative to control; design: scale not given: the % may be the effect or the level left
A498 = assay: Growth inhibition of human A498 cells after 24 hrs by MTT assay; settings: A498, 24 h
SF-295 = assay: Growth inhibition of human SF295 cells at 10 uM after 24 hrs by MTT assay relative to control; design: scale not given: the % may be the effect or the level left
HOP-62 = assay: Growth inhibition of human HOP62 cells after 24 hrs by MTT assay; settings: HOP-62, 24 h
ACHN = assay: Growth inhibition of human ACHN cells after 24 hrs by MTT assay
U-251 = assay: Growth inhibition of human U251 cells at 10 uM after 24 hrs by MTT assay relative to control; design: scale not given: the % may be the effect or the level left
[3] = read-out: LC50 (the source's name)
[4] = read-out: pLC50 (the source's name) (converted)

Which Activity (UACC-62) does the source give for `Cc1onc(-c2c3ccccc3c(Cl)c3ccccc23)c1C(=O)Nc1cc(C(=O)NCCCN(C)CCCNC(=O)c2cc(NC(=O)c3c(-c4c5ccccc5c(Cl)c5ccccc45)noc3C)cn2C)n(C)c1` here?
Its Activity is -100%.

And the Activity (OVCAR-8)?
The Activity was -63.16%.

And the Activity (HT-29)?
Its Activity is -91.6%.

What about the TGI (NCI-H23) of the same compound?
Its TGI is 3.01 µM.

What about the GI50 (NCI-H23; read-out: GI50) of the same compound?
The GI50 was 1540 nM.

What about the CC50 (NCI-H23; [3]) of the same compound?
The CC50 was 5.85 µM.

And the GI50 (NCI-H23; read-out: pGI50 (converted))?
The GI50 was 1550 nM.

What about the CC50 (NCI-H23; [4]) of the same compound?
The CC50 was 5.89 µM.

What about the Activity [1] of the same compound?
Its Activity is -100%.

And the TGI (UACC-257)?
Its TGI is 4.63 µM.

What about the GI50 (UACC-257; read-out: GI50) of the same compound?
The GI50 was 2150 nM.

And the GI50 (UACC-257; read-out: pGI50 (converted))?
Its GI50 is 2140 nM.

And the Activity (MCF7)?
Its Activity is -100%.

And the Activity [2]?
Its Activity is -71.85%.

What about the TGI (A498) of the same compound?
Its TGI is 17.7 µM.

What about the GI50 (A498; read-out: GI50) of the same compound?
The GI50 was 2630 nM.

And the CC50 (A498; [3])?
Its CC50 is 44.4 µM.

What about the GI50 (A498; read-out: pGI50 (converted)) of the same compound?
The GI50 was 2630 nM.

What about the CC50 (A498; [4]) of the same compound?
The CC50 was 44.7 µM.

And the Activity (SF-295)?
Its Activity is -75.66%.

What about the TGI (HOP-62) of the same compound?
Its TGI is 2650 nM.

And the GI50 (HOP-62; read-out: GI50)?
Its GI50 is 1360 nM.

What about the CC50 (HOP-62; [3]) of the same compound?
Its CC50 is 5.14 µM.

What about the GI50 (HOP-62; read-out: pGI50 (converted)) of the same compound?
The GI50 was 1350 nM.

What about the CC50 (HOP-62; [4]) of the same compound?
Its CC50 is 5.13 µM.

What about the TGI (ACHN) of the same compound?
Its TGI is 3.04 µM.

And the GI50 (ACHN; read-out: GI50)?
Its GI50 is 1630 nM.

And the GI50 (ACHN; read-out: pGI50 (converted))?
Its GI50 is 1620 nM.

And the Activity (U-251)?
The Activity was -100%.
